Measured values as given in patent US20240308982A1, “DEGRADERS OF WILD-TYPE AND MUTANT FORMS OF LRRK2 AND USES THEREOF” (DANA-FARBER CANCER INSTITUTE, INC., priority 2021, published 2024).

Test system: LRRK2
Test: Degradation of LRRK2 (immunoblots of treated cells)
Format: cell-based
Details: 448T cells, immunoblot, concentrations 0 to 1000 nM
Method: Example 7: Degradation of LRRK2
Cell lines: Mouse embryonic fibroblast (MEF) WT, LRRK2 homozygous knock-ins in MEFs [R1441C; VPS35N(D620N); G2019S].
Tested concentrations of LRRK2 degraders: 0 nM; 10 nM; 30 nM; 100 nM; 300 nM; 1000 nM.
Experimental time points: 1 h; 6 h; 24 h and 48 h.
Complete growth medium: DMEM supplemented with 10% Fetal Bovine Serum; 1% pen/strep; 1% L-Glutamine; 1% MEM Non-essential Amino Acid Solution; 1% sodium pyruvate.
Treatment: WT MEF, and cells containing mutant LRRK2 (R1441C, VPS35N and G2019S) cells were plated at equal density into 6-well plates in a final volume of 3 mL of complete growth medium/well. Degraders were reconstituted in DMSO and used at 1:1000 in cells i.e., 3 μL/3 mL. Treatment began when cells were >60% confluent, starting from the longest, 48 h time point, followed by 24 h, 6 h and finally 1 h.
Cell lysis: Media were aspirated, plates were placed on ice and cells were washed with DPBS. Fifty (50) microliters of an ice-cold lysis buffer containing 50 mM Tris-HCl, pH 7.5, 1% (v/v) Triton X-100, 1 mM EGTA, 1 mM sodium orthovanadate, 50 mM NaF, 0.1% (v/v) 2-mercaptoethanol, 10 mM 2-glycerophosphate, 5 mM sodium pyrophosphate, 0.1 μg/mL microcystin-LR (Enzo Life Sciences), 270 mM sucrose and complete EDTA-free protease inhibitor cocktail (Sigma-Aldrich Cat #11836170001) were added per well. Lysates were centrifuged at 20 817 g (14,000 rpm) for 15 min at 4° C. and supernatants were used to determine protein concentration using Bradford assay (Pierce™ Coomassie (Bradford) Protein Assay Kit, Thermo Scientific Cat #23200) and for Western blot analysis.
Western blot analysis: Cell lysates were mixed with 4× SDS-PAGE sample buffer [50 mM Tris —HCl, pH 6.8, 2% (w/v) SDS, 10% (v/v) glycerol, 0.02% (w/v) Bromophenol Blue and 1% (v/v) 2-mercaptoethanol] to a final total protein concentration of 1 μg/μL and heated at 95° C. for 5 min. […]

DC50: 33 nM
Structure (SMILES): CC1(Oc2ccc3[nH]nc(-c4cc(N5CCN(CC6CN(c7ccc8c(c7)C(=O)N(C7CCC(=O)NC7=O)C8=O)C6)CC5)ncn4)c3c2)CC1 (stereo not drawn) [Compound 1, 2-(2,6-dioxopiperidin-3-yl)-5-(3-((4-(6-(5-(1-methylcyclopropoxy)-1H-indazol-3-yl)pyrimidin-4-yl)piperazin-1-yl)methyl)azetidin-1-yl)isoindoline-1,3-dione]
Dmax: 60% | degrader of LRRK2: potent degrader of LRRK2
